Experimental data from patent US11366101B1, “Ex vivo systems and methods for determining the effect of a drug or other agent on a tissue” (Elephas Biosciences Corporation, priority 2020, dated 2022).

Tests used:
live tumor fragment = assay: Diffusion of a small molecule drug and an antibody into a live tumor fragment (fluorescence imaging); format: in vitro ADME; conditions: live tumor fragment cultured at 37° C., time after addition
Description: Notable was gradual appearance of doxorubicin-characteristic fluorescence first in the periphery of tissue fragment at 15 minutes followed by full-thickness staining of the entire fragment area at 2 hours. […] Notable is plateau staining within about 5 h. As noted by this experiment, both small molecule drugs and large antibodies diffused into the live tissue fragments.

EMT6 tumor fragments [1] = assay: Label-free MP-FLIM of NAD(P)H fluorescence lifetime in cultured tumor fragments; format: cell-based, mouse; conditions: 24 hours of exposure vs 0 h, p<0.002
Description: Live EMT6 tumors were cut into tissue fragments that were then sorted and cultured in glass-bottomed multi-well plates. To induce cancer cell death, one group was treated with the multi-kinase inhibitor, staurosporine (STS), and the control group was treated with the vehicle (Veh). Before (0 h) and after treatment (24 h), the structure and metabolic status of tumor fragments were imaged based on the intrinsically fluorescent metabolic co-factor nicotinamide dinucleotides (NAD(P)H) fluorescence intensity and lifetime using MP-FLIM by time-correlated single photon counting. The data was analyzed by fitting fluorescence decay curves with dual exponents. […] Each dot represents one fragment.

EMT6 tumor fragments [2] = assay: NAD(P)H intensity multiphoton microscopy versus propidium iodide viability ground truth in cultured tumor fragments; format: cell-based, mouse; conditions: after 24 h, treated versus untreated
Description: Live EMT6 tumors were cut into tissue fragments that were then sorted and cultured in glass-bottomed multi-well plates. To induce cancer cell death, one group was treated with the multi-kinase inhibitor, staurosporine (STS), and the control group was untreated. After 24 h, the structure and metabolic status of tumor fragments were imaged based on the intrinsically fluorescent metabolic co-factor nicotinamide dinucleotides (NAD(P)H) fluorescence intensity using multiphoton microscopy with 720 nm excitation. […] For structural reference, the second harmonic generation was also imaged (blue).

[3] = tested on: human live tumor fragments; assay: Supernatant cytokines of live tumor fragments by LEGENDPlex bead immunoassay, human; format: cell-based; conditions: cultured 48 or 72 h; for presence of IFN-γ and cytokines associated with immune activation relative to the untreated control: human samples
Description: (§1) Human tumor excisions were obtained from the University of Wisconsin (Institutional Review Board (IRB) approved) and CT26 tumors were grown in mice. Tumor excisions were cut into […] live tumor fragments of 100-300 μm thickness, sorted into multi-well plates, and cultured for 48 or 72 h in the presence or absence of anti-PD1 (nivolumab or mouse equivalent), anti-PD1 plus anti-CTLA4 (ipilimumab or mouse equivalent), or concanavalin A (ConA) as a positive control. Cell viability was ascertained by ATP luminescence assay or flow cytometry (not shown). Supernatant cytokines were measured using LEGENDPlex bead immunoassay. […] The presence of cytokines was greater in wells with 10 fragments than in wells with 3 fragments, indicating suitability of culture conditions.

CT26 tumor fragments = assay: Supernatant cytokines of live tumor fragments by LEGENDPlex bead immunoassay, mouse; format: cell-based; conditions: mouse specimens, cultured 48 or 72 h
Description: as §1

For `COc1cccc2c1C(=O)c1c(O)c3c(c(O)c1C2=O)C[C@@](O)(C(=O)CO)C[C@@H]3O[C@H]1C[C@H](N)[C@H](O)[C@H](C)O1` [doxorubicin], the “appearance of doxorubicin-characteristic fluorescence in the periphery of tissue fragment” value (live tumor fragment) was 15 min and the “full-thickness staining of the entire fragment area” value (live tumor fragment) was 2 h.
`CN[C@@H]1C[C@H]2O[C@@](C)([C@@H]1OC)n1c3ccccc3c3c4c(c5c6ccccc6n2c5c31)C(=O)NC4` [staurosporine] was tested, and the “NAD(P)H short lifetime component (a1)” value (EMT6 tumor fragments [1]) was “concomitant decrease”, the “whole fragment NAD(P)H mean lifetime (tm)” value (EMT6 tumor fragments [1]) was “statistically significant increase” and the “PI-stained nuclei (dead cells)” value (EMT6 tumor fragments [2]) was “increased numbers of PI-stained nuclei”. The “NAD(P)H intensity” value (EMT6 tumor fragments [2]; 720 nm excitation) was “loss of NAD(P)H intensity”.
With “anti-PD1: immunotherapy drug anti-PD1 (nivolumab or mouse equivalent)” the “cytokine panel upregulation, fold increase relative to untreated control” value ([3]; human LTFs) was “cytokine panel upregulation was observed”, the “presence of IFN-γ and cytokines associated with immune activation relative to the untreated control” value [3] was “greater presence of IFN-γ and 16 cytokines” and the “presence of IFN-γ and cytokines associated with immune activation, fold increase in relation to the untreated control” value (CT26 tumor fragments) was “greater presence of IFN-γ and 10 cytokines”.
concanavalin A [ConA] was tested, and the “presence of IFN-γ and cytokines associated with immune activation relative to the untreated control” value [3] was “greater presence of IFN-γ and 16 cytokines”.
